Laboratory results from US8562986B2, “Engineered anti-alpha V-integrin hybrid antibodies” (Merck Patent GmbH, priority 2007, dated 2013).
“Also recorded” adds a separate entry of the source. Like-named read-outs stand apart in the source and are kept apart here.

Tests used:
[1] = test system: HUVEC; experiment: cells; settings: for additive effect with Cilengitide: chemotherapeutic combined with Cilengitide; for additive effect with DI-17E6: chemotherapeutic combined with DI-17E6; for additive effect with Mab 17E6: chemotherapeutic combined with Mab 17E6
Method: The experimental design gives answer to the question whether blockade of the one lowered the IC50 of the other for blockade endothelial cell growth in the presence of tumor growth factors VEGFA and FGF2.
Plates were coated with 100 μl VN at 1 μg/ml in PBS per 96-well at 4° C. overnight. […] When added in combination the two test substances were mixed at the starting concentrations and the mixture was serially diluted as for the single agents alone. In some assays the chemotherapeutics were serially diluted in the presence of a constant amount of the alpha V blockers at the IC50 or IC70 concentrations. Plates were incubated for 72 hours, then relative cell number was determined by the addition of 20 ul/well Alamar Blue (Resazurin).
Points were run in duplicate or in triplicate. Reagent blanks, containing media plus Alamar Blue without cells, were run on each plate.
Tests were routinely run using HUVEC in media containing 10 ng/ml FGF-2 or HDMVEC in media containing 10 ng/ml VEGF.

[2] = test system: NP18-b3 pancreatic tumor; experiment: Orthotopic pancreatic xenograft; assay type: in vivo, nude mice; settings: EMD 525797 500 μg per animal or gemcitabine 50 mg/Kg, i.p. 3 times a week; 6 weeks
Method: NP18-b3 pancreatic human cell line, which expresses αvβ3-integrin, was implanted orthotopically into the pancreas of immunosuppressed mice. The animals were randomized to and one week later treatment with drugs and vehicle started.
Tumors were removed and cut into pieces of 10 mg each. These pieces were then sutured to the pancreas of healthy animals (one piece per animal). 4-6 weeks later, tumors were removed, cut into pieces again and stitched into new animals. Those new animals were then randomized and one week later treatment with drugs and vehicle was started. EMD 525797 was dosed i.p. at 500 μg per animal three times a week. Gemcitabine was administered as a suboptimal dose of 50 mg/Kg 3 times a week (suboptimal dose based on previous studies). In a fourth group, EMD 525797 was combined with suboptimal doses of gemcitabine based on previous experiments. Tumor growth measurement (weight of the removed tumors) was made 6 weeks after the tumor grafting.

[3] = target: αvβ3 integrin (Homo sapiens, UniProt P06756); experiment: Integrin binding ELISA
Method: Assay to determine binding of DI17E6 antibody to alpha V integrin receptor subunit The ability of the DI17E6 antibody to bind alpha V integrin was assayed using an ELISA. Briefly, various amounts of antibody were added to wells containing alpha V integrin, wells were then washed, and the bound antibody was assayed according to standard procedures.

[4] = test system: human endothelial cell adhesion to vitronectin; experiment: Endothelial cell adhesion to vitronectin; assay type: cell-based; settings: read-out: EC50, inhibition of human endothelial cell adhesion to vitronectin
[5] = test system: platelet thrombus formation; experiment: Thrombus formation in perfusion chamber; assay type: cell-based; settings: dose-dependent
Method: To exclude possible side effects of the antibody on platelets, EMD 525797 was evaluated for inhibition of platelet aggregation in vitro with human platelet rich plasma/collagen. […] Aggregation and activation studies were carried out using Platelet Rich Plasma (PRP). Thrombus formation by perfusion chamber with exposed subendothelial matrix.

[6] = Serum levels and anti-antibody response in monkey Matrigel plug experiment; assay type: in vivo; settings: monkeys, single i.v. injection, up to end of study
Method: Serums were collected at three different points (from the legs): immediately before antibody injection, immediately (1-2 minutes) after antibody injection, and at the end of the study before animal sacrifice. […] To detect given serum dilution) were found at the two different time points in serum: immediately after antibody administration and at the end of the study.

[7] = Single dose immunogenicity study in monkeys (sandwich ELISA); assay type: in vivo, monkey; settings: 1 mg/Kg single i.v., 1, 3 and 6 weeks
Method: In another study the pharmacy kinetic parameters of a single dose of DI-17E6 in monkeys was assessed and in addition, this study was planned to investigate the immunogenicity of DI-17E6. […] Length of the assay was 6 weeks. Serums were drawn pre-dose, and 1, 3, and 6 weeks after administration. Levels of monkey antibodies against DI-17E6 were analyzed. In this study, immunogenicity was directly addressed using a specific sandwich ELISA method designated for this type of studies (method not validated yet).

[8] = First clinical study in healthy volunteers, anti-drug antibodies; assay type: in vivo, human
Description: This was meanwhile confirmed by a first clinical study carried out in the US in 2006/2007. […] In contrast to that, mouse 17E6 develops in animal models a strong immune response.

[9] = T-cell epitope mapping score; design: species or system human; settings: T-cell epitope scoring
[10] = test system: M21-L tumors; experiment: SCID mouse-human skin chimera model; assay type: in vivo; settings: 1 mg/dose i.p. 3 times per week, from one day after inoculation
Description: Human skin containing human M21 melanoma cells were grafted by implantation/transplantation onto SCID or nude mice. Experimental tumors grew in this tissue after intradermal inoculation of tumor cells and the initial angiogenic vasculature was derived from vessels in the human skin. In the next experiment, the use of M21-L cells that have no av-integrins means that only those integrins expressed on the endothelial cells within the grafted human skin were targeted.

[11] = test system: bFGF induced angiogenesis; experiment: Matrigel plug model in monkeys; assay type: in vivo, Cynomologus monkeys; settings: 6 days
Method: Matrigel plugs containing bFGF were implanted s.c. into the abdomen of healthy Cynomologus monkeys. The animals were injected once with EMD 525797 i.v. at either 10 mg/Kg or 30 mg/Kg. Evaluation of angiogenesis was carried out 6 days after by quantification of the hemoglobin content in the Matrigel plugs.

[12] = test system: CAKI-1 renal carcinoma; experiment: CAKI-1 renal carcinoma xenograft, monotherapy; assay type: in vivo, SCID or nude mice; settings: i.p. once per week
[13] = test system: CAKI-1 xenograft tumors; experiment: CAKI-1 renal cell carcinoma xenograft, with Erbitux; assay type: in vivo, mice; settings: 17.1 mg/kg loading then […] weekly i.p.
Method: The renal cell carcinoma cell line CAKI-1 was grown in RPMI containing 10% FCS (heat-inactivated) plus 2 mM glutamine. 1 mM sodium pyruvate. 100 units/ml penicillin and 100 ug/ml streptomycin. Cells were passaged at confluence by washing once in cation-free PBS followed by a 3 minute incubation in trypsin (0.5 ug/ml)/EDTA (0.2 ug/ml) solution in PBS at 37° C. Cells were recovered in medium, centrifuged and taken up in medium and counted.
The treatment started for all groups at day 0 of experiment (same day of cell injection).

[14] = 4-weeks / repeat-dose toxicology study; assay type: in vivo, cynomolgus monkey
[15] = test system: bacteria; experiment: Bacterial screening test for mutagenic potential; assay type: cell-based
[16] = ADCC and CDC; assay type: cell-based
[17] = test system: αv-integrins; experiment: Species specificity (immuno precipitation, western blotting); assay type: binding, human and monkey
Method: The molecular basis for this unusual profile has been unequivocally established by epitope mapping, sequence comparison, and x-ray co-crystallography. The epitope recognized by DI-17E6 is confirmed as unique to human and monkey by immuno precipitation and western blotting analysis performed with several species.

[18] = test system: VEGF-induced migration of human endothelial cells on vitronectin; settings: read-out: EC50, block of VEGF-induced migration of human endothelial cells on vitronectin
[19] = test system: human melanoma cell lines m21, SKMEL-23, SKMEI, MeWo, WM-793; settings: cisplatin, paclitaxel, vinblastin, vincristin, temoyolomide
[20] = HUVEC, 10 ng/ml FGF-2, 72 hours, single agent
[21] = Homo sapiens, HUVEC, 72 h, 10 ng/ml FGF-2, 72 hours, single agent

αvβ3 integrin, sequence (P06756 31-889 limits assumed): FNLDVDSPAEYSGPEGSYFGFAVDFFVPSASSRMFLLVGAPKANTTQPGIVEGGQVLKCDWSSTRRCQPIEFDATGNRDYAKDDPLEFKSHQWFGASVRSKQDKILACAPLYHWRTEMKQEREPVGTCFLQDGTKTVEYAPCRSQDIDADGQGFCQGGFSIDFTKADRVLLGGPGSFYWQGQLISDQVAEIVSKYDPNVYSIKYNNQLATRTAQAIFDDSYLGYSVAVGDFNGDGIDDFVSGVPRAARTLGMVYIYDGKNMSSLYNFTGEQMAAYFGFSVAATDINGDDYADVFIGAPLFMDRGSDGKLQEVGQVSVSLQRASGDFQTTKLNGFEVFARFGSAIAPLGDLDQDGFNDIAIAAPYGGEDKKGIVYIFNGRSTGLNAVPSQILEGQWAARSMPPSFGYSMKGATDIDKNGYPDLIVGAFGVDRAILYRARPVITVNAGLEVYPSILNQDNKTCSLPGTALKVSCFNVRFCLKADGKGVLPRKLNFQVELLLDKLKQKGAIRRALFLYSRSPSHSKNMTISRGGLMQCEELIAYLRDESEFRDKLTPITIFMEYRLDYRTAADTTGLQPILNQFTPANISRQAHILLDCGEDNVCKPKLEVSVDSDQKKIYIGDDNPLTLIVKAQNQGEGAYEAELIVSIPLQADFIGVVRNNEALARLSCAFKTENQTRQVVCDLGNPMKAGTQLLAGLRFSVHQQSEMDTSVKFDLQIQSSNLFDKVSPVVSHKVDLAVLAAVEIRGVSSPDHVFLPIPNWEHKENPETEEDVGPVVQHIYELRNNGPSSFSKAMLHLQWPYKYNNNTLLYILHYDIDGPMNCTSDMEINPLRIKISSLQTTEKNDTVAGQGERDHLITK
αvβ3 integrin, sequence (P06756 891-1048 partner limits assumed): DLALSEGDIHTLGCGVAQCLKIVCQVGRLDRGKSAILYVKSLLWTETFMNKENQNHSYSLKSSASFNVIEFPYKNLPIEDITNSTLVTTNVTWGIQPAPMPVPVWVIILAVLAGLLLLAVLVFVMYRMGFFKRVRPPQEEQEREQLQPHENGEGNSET
αvβ3 integrin, sequence (P05106 27-788 partner): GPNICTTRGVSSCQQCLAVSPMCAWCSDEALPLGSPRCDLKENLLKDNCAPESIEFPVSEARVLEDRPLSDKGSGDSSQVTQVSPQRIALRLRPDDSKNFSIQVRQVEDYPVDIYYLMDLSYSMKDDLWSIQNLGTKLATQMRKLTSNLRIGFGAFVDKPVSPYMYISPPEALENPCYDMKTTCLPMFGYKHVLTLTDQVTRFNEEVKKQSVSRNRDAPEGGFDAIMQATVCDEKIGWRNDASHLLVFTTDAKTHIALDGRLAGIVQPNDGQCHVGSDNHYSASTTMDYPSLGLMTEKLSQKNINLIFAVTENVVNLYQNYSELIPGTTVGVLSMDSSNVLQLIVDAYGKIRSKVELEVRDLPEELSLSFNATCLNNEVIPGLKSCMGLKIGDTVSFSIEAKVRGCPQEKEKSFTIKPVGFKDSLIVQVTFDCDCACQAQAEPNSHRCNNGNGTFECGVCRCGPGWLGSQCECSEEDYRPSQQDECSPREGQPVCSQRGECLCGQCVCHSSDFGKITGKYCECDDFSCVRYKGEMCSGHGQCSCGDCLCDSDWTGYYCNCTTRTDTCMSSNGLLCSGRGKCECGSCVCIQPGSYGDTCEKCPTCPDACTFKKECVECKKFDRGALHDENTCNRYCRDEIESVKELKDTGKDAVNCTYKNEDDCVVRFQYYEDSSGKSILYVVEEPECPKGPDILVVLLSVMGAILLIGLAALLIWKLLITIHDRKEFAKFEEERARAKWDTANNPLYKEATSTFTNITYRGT

Compound: O=c1[nH]cc(F)c(=O)[nH]1 [5FU]
- IC50 [1, 20]: 14500 nM
- additive effect with Cilengitide [1]: yes
- additive effect with DI-17E6 [1]: yes
- additive effect with Mab 17E6 [1]: yes

Compound: CC[C@@]1(O)C(=O)OCc2c1cc1n(c2=O)Cc2cc3ccccc3nc2-1 [Camptothecin]
- IC50 [1, 21]: 80 nM
- additive effect with Cilengitide [1]: yes
- additive effect with DI-17E6 [1]: yes
- additive effect with Mab 17E6 [1]: yes

Compound: N.N.[Cl][Pt][Cl] [Cisplatinin]
- IC50 [1, 20]: 13200 nM
- additive effect with Cilengitide [1]: yes
- additive effect with DI-17E6 [1]: yes
- additive effect with Mab 17E6 [1]: yes

Compound: COc1cccc2c1C(=O)c1c(O)c3c(c(O)c1C2=O)C[C@@](O)(C(=O)CO)C[C@@H]3O[C@H]1C[C@H](N)[C@H](O)[C@H](C)O1 [Doxorubicin]
- IC50 [1, 21]: 200 nM
- additive effect with Cilengitide [1]: yes
- additive effect with DI-17E6 [1]: yes
- additive effect with Mab 17E6 [1]: yes

Compound: C[C@]12CC[C@@H]3c4ccc(OC(=O)N(CCCl)CCCl)cc4CC[C@H]3[C@@H]1CC[C@@H]2O [Estramustine]
- IC50 ([1]; Homo sapiens, HUVEC, 72 h): 182000 nM
- additive effect with Cilengitide [1]: no
- additive effect with DI-17E6 [1]: no
- additive effect with Mab 17E6 [1]: no

Compound: COc1cc([C@@H]2c3cc4c(cc3[C@@H](O[C@@H]3O[C@@H]5CO[C@@H](C)O[C@H]5[C@H](O)[C@H]3O)[C@H]3COC(=O)[C@H]23)OCO4)cc(OC)c1O [Etoposide]
- IC50 [1, 21]: 700 nM
- additive effect with Cilengitide [1]: yes
- additive effect with DI-17E6 [1]: yes
- additive effect with Mab 17E6 [1]: yes

Compound: Nc1ccn([C@@H]2O[C@H](CO)[C@@H](O)C2(F)F)c(=O)n1 [Gemcitabine]
- IC50 [1, 21]: 4 nM
- additive effect with Cilengitide [1]: yes
- additive effect with DI-17E6 [1]: yes
- additive effect with Mab 17E6 [1]: yes
- tumor size and weight, monotherapy [2]: not active

Compound: N[C@@H](Cc1ccc(N(CCCl)CCCl)cc1)C(=O)O [Melphalan]
- IC50 ([1]; Homo sapiens, HUVEC, 72 h): 11400 nM
- additive effect with Cilengitide [1]: yes
- additive effect with DI-17E6 [1]: yes
- additive effect with Mab 17E6 [1]: yes

Compound: CC(=O)O[C@H]1C(=O)[C@@]2(C)[C@H]([C@H](OC(=O)c3ccccc3)[C@]3(O)C[C@H](OC(=O)[C@H](O)[C@@H](NC(=O)c4ccccc4)c4ccccc4)C(C)=C1C3(C)C)[C@]1(OC(C)=O)CO[C@@H]1C[C@@H]2O [Taxol, Paclitaxel]
- IC50 [1, 20]: 0.3 ng/mL
- IC50 [1, 21]: 0.27 ng/mL
- IC50 ([1]; Homo sapiens, HUVEC, read-out: IC50 in combination with 17E6, HUVEC, combination with 17E6): 0.18 ng/mL
- IC50 ([1]; Homo sapiens, HUVEC, read-out: IC50 in combination with Cilengitide, HUVEC, combination with Cilengitide): 0.13 ng/mL
- IC50 ([1]; Homo sapiens, HUVEC, read-out: IC50 in combination with DI-17E6, HUVEC, combination with DI-17E6): 0.1 ng/mL
- additive effect with Cilengitide [1]: yes
- additive effect with DI-17E6 [1]: yes
- additive effect with Mab 17E6 [1]: yes

Compound: Cn1nnc2c(C(N)=O)ncn2c1=O [Temozolmide]
- IC50 (in words) [1, 20]: inactive
- additive effect with Cilengitide [1]: no
- additive effect with DI-17E6 [1]: no
- additive effect with Mab 17E6 [1]: no

Compound: CC[C@]1(O)C[C@H]2CN(CCc3c([nH]c4ccccc34)[C@@](C(=O)OC)(c3cc4c(cc3OC)N(C=O)[C@H]3[C@@](O)(C(=O)OC)[C@H](OC(C)=O)[C@]5(CC)C=CCN6CC[C@]43[C@@H]65)C2)C1 [Vincrisitin]
- IC50 [1, 21]: 0.7 nM
- additive effect with Cilengitide [1]: yes
- additive effect with DI-17E6 [1]: yes
- additive effect with Mab 17E6 [1]: yes

Compound: DI-17E6: engineered de-immunized anti-αv integrin antibody: 17E6 CDRs, h425 light chain frameworks, human IgG2 with modified IgG1 hinge, N297Q, F296A
- binding to αvβ3 integrin (in words) [3]: similar
- binding to αvβ3 integrin (in words) ([3]; listed as DI-17E6-g2h(NtoQ)(C60Y)): retains binding affinity
- EC50 [4]: ~10 nM
- IC50 [1, 20]: 4 ng/mL
- platelet thrombus formation in the perfusion chamber [5]: blocks
- serum levels of antibody [6]: high serum levels at each time-point
- monkey antibodies against the antibody [7]: no monkey antibodies against DI-17E6 could be detected
- anti-drug antibodies in volunteers ([8]; group of 250 mg, 6 volunteers): one volunteer developed anti-drug antibodies
- anti-drug antibodies in volunteers ([8]; higher dose groups (500 mg and more)): no volunteer developed any immune response; also recorded: not detected
- Total score, heavy chain ([9]; heavy chain): 85
- Total score, light chain ([9]; light chain): 92
- growth of M21-L tumors [10]: inhibited growth
- new blood vessel formation (hemoglobin content of plugs) ([11]; 10 mg/Kg i.v. once): inactive
- new blood vessel formation (hemoglobin content of plugs) ([11]; 30 mg/Kg i.v. once): highly efficacious
- tumor volume ([12]; high dose (500 ug/ml)): complete reduction of tumor volume
- tumor volume/size ([12]; low (1 ug/ml) to medium (100 ug/ml serum) doses): can reduce tumor volume/size
- T/C at day 40, end of treatment [13]: 25%
- serum trough values ([13]; mice): 100 µg/mL
- tolerability ([14]; 10, 33 and 100 mg/kg once weekly for 4 weeks, intravenous infusion (1 h)): well tolerated
- treatment-related effects in 4-weeks toxicology study ([14]; clinical observations, body weight, ECG, clinical pathology, organ weight, histopathology): did not reveal any treatment-related effects
- safety pharmacology alerts ([14]; repeat-dose-toxicity studies in cynomolgus monkey): No safety pharmacology alerts
- mutagenic potential [15]: not mutagenic
- ADCC and CDC [16]: neither antibody dependent cell cytotoxicity (ADCC) nor complement dependent cytotoxicity (CDC)
- species specificity [17]: human and monkey αv-integrins only
- EC50 [18]: ~50 nM
- effect on the chemotherapeutic agent [19]: not more than additive affects
